Tested on: Jurkat cells
Assay: Jurkat cell proliferation, MTS method: compound alone or combined with bleomycin
Type: cell-based
Set-up: key: ┌++┘ indicates observation of remarkable enhancement; ┌+┘ indicates moderated enhancement
Details: compound plus bleomycin 5 μg/ml or 10 μg/ml, 36 hours, survival rate vs DMSO control
Experimental: By using aforementioned synthetic compounds, effects on proliferation of Jurkat cells by sole administration and inhibitory effects on cell proliferation by administration in combination with bleomycin were examined. Materials and methods are as follows. Jurkat cells obtained from Dainippon Pharmaceutical Co. Ltd. were inoculated at about 10,000 cells per well in a 96 well culture plate, and incubated in 10% bovine fetal serum (Irvine Scientific) supplemented with RPMI1640 (ICN) medium in 5% CO2 incubator at 37° C. […] 36 hours after the incubation, the number of living cells was counted by the MTS method.
More specifically, 20 μl of CellTiter96™ AQueous One Solution (Promega) was added per one well, and after the cells were incubated for additional one hour, an absorbance at 490 nm was measured by using a microplate reader. The same culture added with DMSO as a solvent at final concentration of 0.25% was used as a control. The number of cells in the control was considered as 100% survival rate, and for each compound, survival rates by sole administration or a combined administration were calculated. […] In the table, ┌++┘ indicates observation of remarkable enhancement, ┌+┘ indicates moderated enhancement.

Cc1ccc(S(=O)(=O)Oc2cccc3c(S(=O)(=O)NCc4ccc(C(C)(C)C)cc4)cccc23)cc1 [Compound 1-7, N-[4-(tert-Butyl)benzyl]-5-{[(4-methylphenyl)sulfonyl]oxy}naphthalene-1-sulfonamide]
Activity (enhancement of inhibitory effect on cell proliferation in combination with bleomycin): ++

Cc1ccc(S(=O)(=O)Oc2cccc3c(S(=O)(=O)NCc4c(F)cccc4F)cccc23)cc1 [Compound 1-2, N-(2,6-Difluorobenzyl)-5-{[(4-methylphenyl)sulfonyl]oxy}naphthalene-1-sulfonamide]
Activity (enhancement of inhibitory effect on cell proliferation in combination with bleomycin): +

Cc1ccc(S(=O)(=O)Oc2cccc3c(S(=O)(=O)NCc4cccc5ccccc45)cccc23)cc1 [Compound 1-19, N-(1-Naphthylmethyl)-5-{[(4-methylphenyl)sulfonyl]oxy}naphthalene-1-sulfonamide]
Activity (enhancement of inhibitory effect on cell proliferation in combination with bleomycin): ++

Cc1ccc(S(=O)(=O)Oc2cccc3c(S(=O)(=O)NC(C)c4ccccc4)cccc23)cc1 (centres unmarked) [Compound 1-26, N-(1-Phenethyl)-5-{[(4-methylphenyl)sulfonyl]oxy}naphthalene-1-sulfonamide]
Activity (enhancement of inhibitory effect on cell proliferation in combination with bleomycin): ++

Cc1ccc(S(=O)(=O)Oc2cccc3c(S(=O)(=O)NCc4ccc(Cl)cc4Cl)cccc23)cc1 [Compound 1-3, N-(2,4-Dichlorobenzyl)-5-{[(4-methylphenyl)sulfonyl]oxy}naphthalene-1-sulfonamide]
Activity (enhancement of inhibitory effect on cell proliferation in combination with bleomycin): ++

COc1cccc(CNS(=O)(=O)c2cccc3c(OS(=O)(=O)c4ccc(C)cc4)cccc23)c1OC [Compound 1-13, N-(2,3-Dimethoxybenzyl)-5-{[(4-methylphenyl)sulfonyl]oxy}naphthalene-1-sulfonamide]
Activity (enhancement of inhibitory effect on cell proliferation in combination with bleomycin): +

CC(C)(C)c1ccc(CNS(=O)(=O)c2ccc3c(O)cccc3c2)cc1 [Compound 4-4, N-[4-(tert-Butyl)benzyl]-5-hydroxynaphthalene-2-sulfonamide]
Activity (enhancement of inhibitory effect on cell proliferation in combination with bleomycin): ++

Cc1ccc(S(=O)(=O)Oc2cccc3c(S(=O)(=O)NCc4ccc(C)o4)cccc23)cc1 [Compound 1-20, N-[(5-Methylfuran-2-yl)methyl]-5-{[(4-methylphenyl)sulfonyl]oxy}naphthalene-1-sulfonamide]
Activity (enhancement of inhibitory effect on cell proliferation in combination with bleomycin): +

O=S(=O)(NCc1cccc2ccccc12)c1cccc2c(O)cccc12 [Compound 2-19, N-(1-Naphthylmethyl)-5-hydroxynaphthalene-1-sulfonamide]
Activity (enhancement of inhibitory effect on cell proliferation in combination with bleomycin): ++

Cc1ccc(S(=O)(=O)Oc2cccc3c(S(=O)(=O)NCC4CCCCC4)cccc23)cc1 [Compound 1-23, N-Cyclohexylmethyl-5-{[(4-methylphenyl)sulfonyl]oxy}naphthalene-1-sulfonamide]
Activity (enhancement of inhibitory effect on cell proliferation in combination with bleomycin): +

CC(=O)Oc1cccc2cc(S(=O)(=O)NCc3ccc(C(F)(F)F)cc3)ccc12 [Compound 3-5, 5-Acetyloxy-N-[4-(trifluoromethyl)benzyl]naphthalene-2-sulfonamide]
Activity (enhancement of inhibitory effect on cell proliferation in combination with bleomycin): +

O=S(=O)(NCc1cccc2ccccc12)c1ccc2c(O)cccc2c1 [Compound 4-8, N-(1-Naphthylmethyl)-5-hydroxynaphthalene-2-sulfonamide]
Activity (enhancement of inhibitory effect on cell proliferation in combination with bleomycin): +

O=S(=O)(NCC1CCCCC1)c1cccc2c(O)cccc12 [Compound 2-23, N-Cyclohexylmethyl-5-hydroxynaphthalene-1-sulfonamide]
Activity (enhancement of inhibitory effect on cell proliferation in combination with bleomycin): +

CC(C)(C)c1ccc(CNS(=O)(=O)c2cccc3cc(N)ccc23)cc1 [Compound 8-2, 6-Amino-N-[4-(tert-butyl)benzyl]naphthalene-1-sulfonamide]
Activity (enhancement of inhibitory effect on cell proliferation in combination with bleomycin): +

O=S(=O)(NCc1ccc(C(F)(F)F)cc1)c1ccc2c(O)cccc2c1 [Compound 4-5, N-[4-(Trifluoromethyl)benzyl]-5-hydroxynaphthalene-2-sulfonamide]
Activity (enhancement of inhibitory effect on cell proliferation in combination with bleomycin): +

COc1cccc(CNS(=O)(=O)c2ccc3c(N)cccc3c2)c1OC [Compound 6-3, 5-Amino-N-(2,3-dimethoxybenzyl)naphthalene-2-sulfonamide]
Activity (enhancement of inhibitory effect on cell proliferation in combination with bleomycin): +

Cc1ccc(S(=O)(=O)Oc2cccc3c(S(=O)(=O)NCc4ccccc4C)cccc23)cc1 [Compound 1-6, N-(2-Methylbenzyl)-5-{[(4-methylphenyl)sulfonyl]oxy}naphthalene-1-sulfonamide]
Activity (enhancement of inhibitory effect on cell proliferation in combination with bleomycin): ++

COc1ccccc1CNS(=O)(=O)c1cccc2c(OS(=O)(=O)c3ccc(C)cc3)cccc12 [Compound 1-11, N-(2-Methoxybenzyl)-5-{[(4-methylphenyl)sulfonyl]oxy}naphthalene-1-sulfonamide]
Activity (enhancement of inhibitory effect on cell proliferation in combination with bleomycin): ++

O=S(=O)(NCCc1ccccc1)c1cccc2c(O)cccc12 [Compound 2-25, N-(2-Phenethyl)-5-hydroxynaphthalene-1-sulfonamide]
Activity (enhancement of inhibitory effect on cell proliferation in combination with bleomycin): +

Cc1ccc(S(=O)(=O)Oc2cccc3c(S(=O)(=O)NCc4cccc(N)c4)cccc23)cc1 [Compound 1-16, N-(3-Aminobenzyl)-5-{[(4-methylphenyl)sulfonyl]oxy}naphthalene-1-sulfonamide]
Activity (enhancement of inhibitory effect on cell proliferation in combination with bleomycin): +

O=S(=O)(NCc1ccccc1)c1ccc2c(O)cccc2c1 [Compound 4-1, N-Benzyl-5-hydroxynaphthalene-2-sulfonamide]
Activity (enhancement of inhibitory effect on cell proliferation in combination with bleomycin): +

CC(=O)Oc1cccc2cc(S(=O)(=O)NCc3ccc(C)o3)ccc12 [Compound 3-9, 5-Acetyloxy-N-[(5-methylfuran-2-yl)methyl]naphthalene-2-sulfonamide]
Activity (enhancement of inhibitory effect on cell proliferation in combination with bleomycin): +

O=S(=O)(NCc1ccccc1C(F)(F)F)c1cccc2c(O)cccc12 [Compound 2-8, N-[2-(Trifluoromethyl)benzyl]-5-hydroxynaphthalene-1-sulfonamide]
Activity (enhancement of inhibitory effect on cell proliferation in combination with bleomycin): +

COc1cccc(CNS(=O)(=O)c2cccc3c(OS(=O)(=O)c4ccc(C)cc4)cccc23)c1 [Compound 1-12, N-(3-Methoxybenzyl)-5-{[(4-methylphenyl)sulfonyl]oxy}naphthalene-1-sulfonamide]
Activity (enhancement of inhibitory effect on cell proliferation in combination with bleomycin): +

CC(C)(C)c1ccc(CNS(=O)(=O)c2cccc3c(O)cccc23)cc1 [Compound 2-7, N-[4-(tert-Butyl)benzyl]-5-hydroxynaphthalene-i-sulfonamide]
Activity (enhancement of inhibitory effect on cell proliferation in combination with bleomycin): ++

O=[N+]([O-])c1cccc(CNS(=O)(=O)c2ccc3c(O)cccc3c2)c1 [Compound 4-3, N-(3-Nitrobenzyl)-5-hydroxynaphthalene-2-sulfonamide]
Activity (enhancement of inhibitory effect on cell proliferation in combination with bleomycin): +

COc1cccc(CNS(=O)(=O)c2ccc3c(O)cccc3c2)c1OC [Compound 4-6, N-(2,3-Dimethoxybenzyl)-5-hydroxynaphthalene-2-sulfonamide]
Activity (enhancement of inhibitory effect on cell proliferation in combination with bleomycin): +

O=S(=O)(NCCc1ccccc1)c1ccc2c(O)cccc2c1 [Compound 4-13, N-(2-Phenethyl)-5-hydroxynaphthalene-2-sulfonamide]
Activity (enhancement of inhibitory effect on cell proliferation in combination with bleomycin): +

Cc1ccc(S(=O)(=O)Oc2cccc3c(S(=O)(=O)Nc4ccccc4)cccc23)cc1 [Compound 1-24, N-Phenyl-5-{[(4-methylphenyl)sulfonyl]oxy}naphthalene-1-sulfonamide]
Activity (enhancement of inhibitory effect on cell proliferation in combination with bleomycin): ++

Cc1ccc(S(=O)(=O)Oc2cccc3c(S(=O)(=O)NCc4ccccc4)cccc23)cc1 [Compound 1-1, N-Benzyl-5-{[(4-methylphenyl)sulfonyl]oxy}naphthalene-1-sulfonamide]
Activity (enhancement of inhibitory effect on cell proliferation in combination with bleomycin): ++

Cc1ccc(S(=O)(=O)Oc2cccc3c(S(=O)(=O)NCc4ccc5c(c4)OCO5)cccc23)cc1 [Compound 1-15, N-(3,4-Methylenedioxybenzyl)-5-{[(4-methylphenyl)sulfonyl]oxy}naphthalene-1-sulfonamide]
Activity (enhancement of inhibitory effect on cell proliferation in combination with bleomycin): +

Cc1ccc(S(=O)(=O)Oc2cccc3c(S(=O)(=O)NCc4ccc([N+](=O)[O-])cc4)cccc23)cc1 [Compound 1-5, N-(4-Nitrobenzyl)-5-{[(4-methylphenyl)sulfonyl]oxy}naphthalene-1-sulfonamide]
Activity (enhancement of inhibitory effect on cell proliferation in combination with bleomycin): ++

CC(=O)Oc1cccc2cc(S(=O)(=O)NCc3ccc(C(C)(C)C)cc3)ccc12 [Compound 3-4, 5-Acetyloxy-N-[4-(tert-butyl)benzyl]naphthalene-2-sulfonamide]
Activity (enhancement of inhibitory effect on cell proliferation in combination with bleomycin): ++

Cc1ccc(S(=O)(=O)Oc2cccc3c(S(=O)(=O)NCc4ccc(C(F)(F)F)cc4)cccc23)cc1 [Compound 1-9, N-[4-(Trifluoromethyl)benzyl]-5-{[(4-methylphenyl)sulfonyl]oxy}naphthalene-1-sulfonamide]
Activity (enhancement of inhibitory effect on cell proliferation in combination with bleomycin): ++

CC(=O)Oc1cccc2cc(S(=O)(=O)NCc3ccccc3)ccc12 [Compound 3-1, 5-Acetyloxy-N-benzylnaphthalene-2-sulfonamide]
Activity (enhancement of inhibitory effect on cell proliferation in combination with bleomycin): +

Reference: patent US7598418B2, “Amide derivatives” (Institute of Medicinal Molecular Design, Inc., priority 2002, dated 2009)
